# Results from patent publication US20240247250A1, “COMPOSITIONS AND METHODS FOR MODIFYING DNA” (The Regents of the University of California, priority 2021, published 2024).
# Entries after “also recorded” stand apart in the source; their conditions may differ.
# Target: tRNA guanine transglycosylase (TGT) (Escherichia coli, UniProt P0A847)
# Test: TGT labeling of DNA/RNA hairpin oligos with PreQ1 probes, urea PAGE gel shift
# Format: biochemical, E. coli
# Conditions: for turn over by TGT: extended stem DNA analog of ECYA1 with minimal recognition element mutations, denaturing urea PAGE shift and intensity; for labeling of the representative DNA hairpin substrate by functional PreQ1 probes: urea PAGE gel shift assays; for labeled product: 17 nucleotide DNA hairpins derived from cognate tRNA anticodon loops
# [1] = urea PAGE gel shift and intensity
# Chain of tRNA guanine transglycosylase (TGT) (P0A847 whole entry): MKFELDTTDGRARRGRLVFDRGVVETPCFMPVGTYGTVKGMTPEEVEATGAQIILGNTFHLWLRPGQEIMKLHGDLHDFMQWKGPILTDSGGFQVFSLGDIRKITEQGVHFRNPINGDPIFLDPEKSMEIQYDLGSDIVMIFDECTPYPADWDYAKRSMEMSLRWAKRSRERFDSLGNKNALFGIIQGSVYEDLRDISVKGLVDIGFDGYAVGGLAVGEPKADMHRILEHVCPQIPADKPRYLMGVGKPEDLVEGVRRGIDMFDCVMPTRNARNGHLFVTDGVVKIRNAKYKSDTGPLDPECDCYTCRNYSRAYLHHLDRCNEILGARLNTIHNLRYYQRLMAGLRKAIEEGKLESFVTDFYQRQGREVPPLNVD
compound,measurement,setting,value
GGGAGCAGACTGUAAATCTGCTCCC [dTdGdU],turn over by TGT,PreQ1-biotin probe,comparable turn over to the wildtype RNA substrate
GGGAGCAGACUGUAAATCTGCTCCC [dUdGdU],turn over by TGT,PreQ1-biotin probe,comparable turn over to the wildtype RNA substrate
TAMRA,labeling of the representative DNA hairpin substrate by functional PreQ1 probes,,Quantitative labeling
GGGAGCAGACTGTAAATCTGCTCCC [dTdGdT],turn over by TGT,PreQ1-biotin probe,no appreciable turn over
CTGGATTGTCCTTCCAG [SEQ ID NO:21],labeling with PreQ1-biotin confirmed by LCMS,LCMS analysis of PreQ1-biotin labeled sequence,efficient labeling
same,labeling of hairpin or loop sequence appended to longer ssDNA,"PreQ1-biotin probe, urea PAGE gel shift, listed as TAG2 DNA hairpin",can be modified internally; also recorded: can be modified at either end of a DNA sequence of interest
Alexa Fluor 647,labeling of the representative DNA hairpin substrate by functional PreQ1 probes,,Quantitative labeling
GGGAGCAGACUGTAAATCTGCTCCC [dUdGdT],turn over by TGT,PreQ1-biotin probe,no appreciable turn over
Nc1nc2[nH]cc(CNCCCCCCNC(=O)CCCCC3SCC4NC(=O)NC43)c2c(=O)[nH]1 (stereo not shown) [PreQ1-biotin],labeling of the representative DNA hairpin substrate by functional PreQ1 probes,,Quantitative labeling
GCAGACTGTAAATCTGC [tyrosine based counterpart],labeled product,[1],~-5%
CCTGCCTGTCACGCAGG,labeled product,[1],~40%
CTGGATTGTGATTCCAG,labeled product,[1],~40%
CTGGACTGTCACTCCAG [His(stem)-Asp(loop)],labeling efficiency,"composite hairpins with swapped stems and loops, urea PAGE gel shift and intensity",over 50%
